Data: patent publication US7947302B2, “Antithrombotic coating for drug eluting medical devices” (Cordis Corporation, priority 2005, dated 2011)

What was measured:
[1] = test system: human coronary artery smooth muscle cells; test: Anti-proliferative activity in synchronized cultured cells, two percent fetal bovine serum (FIG. 64-68); type: cell-based
From the text: (§1) The multiple curves represent various concentrations of topotecan ranging from zero to three hundred nanomolar concentrations.
(§2) The multiple curves represent various concentrations of etoposide ranging from zero to eight hundred nanomolar concentrations.
Referring to FIG. 66, there is illustrated, in graphical format, the anti-proliferative activity of Panzem® in synchronized cultured human coronary artery smooth muscle cells stimulated with two percent fetal bovine serum.
The multiple curves represent various concentrations of Panzem® ranging from zero to 100 micromolar concentrations.

[2] = test system: human coronary artery smooth muscle cell; test: MTS cytotoxicity assay (FIG. 69); type: cell-based; details: concentrations up to 30,000.00 nanomolar (6.6 to 30,000.00 nanomolar tested)
From the text: Typically, a control is utilized to determine baseline toxicity.

[3] = test system: human coronary artery smooth muscle cells; test: Anti-proliferative activity in non-synchronized cultured cells, two percent fetal bovine serum (FIG. 57, 58); type: cell-based
From the text: FIG. 58 illustrates, in graphical format, the anti-proliferative activity of cladribine in non-synchronized cultured human coronary artery smooth muscle cells stimulated with two percent fetal bovine serum.
The multiple curves represent various concentrations of cladribine ranging from zero to nine hundred nanomolar concentrations.

[4] = In vivo release kinetics of cladribine from PVDF/HFP coating on Bx Velocity stents (FIG. 61); parameters: species or system Yorkshire pig; details: 1800 micrograms basecoat, thirty percent cladribine, 300 micrograms topcoat
From the text: FIG. 61 is a graphical representation of the in vivo release kinetics of cladribine from a polymeric coating on BxVelocity® stents, available from Cordis Corporation, implanted in a Yorkshire pig. The basecoat comprises an 85/15 ratio of PVDF and HFP and cladribine for a total combined weight of one thousand eight hundred micrograms (cladribine comprising thirty percent of the total weight). The topcoat comprises an 85/15 ratio of PVDF/HFP and no cladribine. The total weight of the topcoat is three hundred micrograms.

[5] = In vivo release kinetics from rapamycin/cladribine EVA/BMA basecoat, porcine pharmacokinetics studies (FIG. 62, 63); parameters: species or system Yorkshire pigs; details: comparison of FIG. 63 with FIG. 62
From the text: The basecoat is applied to Bx Velocity® stents and implanted into Yorkshire pigs.
The basecoat is applied to BxVelocity® stents and implanted into Yorkshire pigs.

cell viability = test: Cell viability assay; type: cell-based
From the text: as §1, §2

[6] = test system: human coronary artery smooth muscle cells; test: Anti-proliferative activity of rapamycin with mycophenolic acid, non-synchronized cells, two percent fetal bovine serum (FIG. 52); type: cell-based; details: mycophenolic acid zero to one thousand nanomolar; leftward and upward shift
From the text: The multiple curves represent various concentrations of mycophenolic acid ranging from zero to one thousand nanomolar concentrations. […] This potentiation observed in cultured coronary artery smooth muscle cells preferably translates to an enhancement in anti-restenotic efficacy following vascular injury and a reduction in the required amount of either agent to achieve the desired anti-restenotic effect.

[7] = In vivo release kinetics from rapamycin/mycophenolic acid EVA/BMA basecoat, porcine pharmacokinetics studies (FIG. 53, 54); details: 180 micrograms rapamycin, 180 micrograms mycophenolic acid, 240 micrograms EVA/BMA; none, 100 or 200 micrograms BMA topcoat
[8] = In vivo release kinetics from rapamycin/mycophenolic acid PVDF basecoat with PVDF topcoat, porcine pharmacokinetics studies (FIG. 56); details: 600 micrograms basecoat, 200 micrograms topcoat
From the text: The topcoat is two hundred micro grams.

[9] = Liquid formulations with PEG 200, ethanol and water; concentrations by liquid chromatography; type: physicochemical; details: liquid formulation comprising 4 mg/ml of sirolimus
From the text: In accordance with exemplary embodiments of the present invention, a series of liquid formulations were developed for the local or regional delivery of water insoluble compounds such as sirolimus and its analogs, including CCl-779, ABT-578 and everolimus, through weeping balloons and catheter injection needles. […] These liquid formulations increase the apparent solubility of the pharmacologically active but water insoluble compounds by two to four orders of magnitude as compared to the solubility limits of the compounds in water. These liquid formulations rely on the use of a very small amount of organic solvents such as Ethanol (typically less than two percent) and a larger amount of safe amphiphilic (of or relating to a molecule having a polar, water soluble group attached to a non-polar, water insoluble […]) excipients such as polyethylene glycol (PEG 200, PEG 400) and vitamin E TPGS to enhance the solubility of the compounds. These liquid formulations of highly water insoluble compounds are stable and readily flowable at room temperature. Certain excipients, such as Vitamin E TPGS and BHT may be utilized to enhance the storage stability of sirolimus compounds through their anti-oxidation properties. […]

[10] = test system: human coronary artery smooth muscle cell; test: In vitro cell culture study of coronary artery smooth muscle cell proliferation (trichostatin A); type: cell-based
From the text: FIG. 51 is a graph of the inhibition of coronary artery smooth muscle cells by trichostatin A in a cell culture study.

tumor cell lines = details: cited from earlier work

## COc1cc2c(cc1O)CC[C@@H]1[C@@H]2CC[C@]2(C)[C@@H](O)CC[C@@H]12 [Panzem®, 2-methoxyestradiol]
[1]; Panzem 0.813 to 100 micromolar
  effect of addition to cells treated with rapamycin: increases the percent of inhibition of rapamycin alone
[1]; in vitro, agent alone
  anti-proliferative activity (FIG. 66, 67): extremely effective inhibitor
[2]
  MTS assay: cell survival: do not reduce human coronary artery smooth muscle cell survival

## Nc1nc(Cl)nc2c1ncn2[C@H]1C[C@H](O)[C@@H](CO)O1 [cladribine, 2-chlorodeoxyadenosine]
[3]; cladribine 56.25 to 900 nanomolar
  effect of addition to cells treated with rapamycin: increases the percent inhibition of rapamycin alone
[3]; non-synchronized cells, two percent fetal bovine serum
  inhibition of human coronary artery smooth muscle cell proliferation: completely inhibits
[4]
  in vivo elution from PVDF/HFP (85/15) coating: levels off significantly
[5]
  in vivo elution from EVA/BMA basecoat with BMA topcoat relative to rapamycin: elutes more rapidly than rapamycin

## COc1cc([C@@H]2c3cc4c(cc3[C@@H](O[C@@H]3O[C@@H]5CO[C@@H](C)O[C@H]5[C@H](O)[C@H]3O)[C@H]3COC(=O)[C@H]23)OCO4)cc(OC)c1O [etoposide]
[1]; etoposide 255.7 to eight-hundred nanomolar
  effect of addition to cells treated with rapamycin: increases the percent inhibition of rapamycin alone
Cell viability; concentrations up to ten micromolar
  cytotoxicity in a cell viability assay: non-cytotoxic

## COc1c(C)c2c(c(O)c1C/C=C(\C)CCC(=O)O)C(=O)OC2 [mycophenolic acid]
[6]
  effect of addition on the anti-proliferative rapamycin dose response curve: potentiates the anti-proliferative activity of rapamycin
[7]
  in vivo elution from EVA/BMA basecoat relative to co-loaded drug: elutes more completely over a shorter duration than the rapamycin

## CO[C@H]1C[C@@H]2CC[C@@H](C)[C@@](O)(O2)C(=O)C(=O)N2CCCC[C@H]2C(=O)O[C@H]([C@H](C)C[C@@H]2CC[C@@H](O)[C@H](OC)C2)CC(=O)[C@H](C)/C=C(\C)[C@@H](O)[C@@H](OC)C(=O)[C@H](C)C[C@H](C)/C=C/C=C/C=C/1C [rapamycin]
[8]
  in vivo release rate from PVDF basecoat with PVDF topcoat relative to co-loaded drug: slower release rate than that of mycophenolic acid
[9]
  concentration of sirolimus relative to the solubility of sirolimus in water: four hundred to about one thousand

## CC[C@@]1(O)C(=O)OCc2c1cc1n(c2=O)Cc2cc3c(CN(C)C)c(O)ccc3nc2-1 [topotecan]
[1]; topotecan 18.8 to 300 nanomolar
  effect of addition to cells treated with rapamycin: increases the percent inhibition of rapamycin alone
Cell viability; concentrations up to one micromolar
  cytotoxicity in a separate cell viability assay: non-cytotoxic

## CC(/C=C/C(=O)NO)=C\[C@@H](C)C(=O)c1ccc(N(C)C)cc1 [trichostatin A]
[10]
  inhibition of human coronary artery smooth muscle cell proliferation: completely inhibit
[10]; read-out: anti-proliferative IC50
  IC50: ~6 nM
Tumor cell lines
  anti-proliferative IC50's: low nM range
